From US9211310B2, “Use of a Chinese medicine composition in preparing medicaments for treating secondary prevention of myocardial infarction” (TASLY PHARMACEUTICAL GROUP CO., LTD, priority 2010, dated 2015)

Test system: patients after acute myocardial infarction
Test: TCM symptom score, total and single (chest pain, chest tightness, short breath, fatigue, palpitation, spontaneous perspiration, pale complexion), same clinical trial
Type: in vivo, human
Design: total score of TCM symptom, Mean / total score of TCM symptom, Min / total score of TCM symptom, Max / total score of TCM symptom, Md / change of total score of TCM symptom, Mean / change of total score of TCM symptom, Max / change of total score of TCM symptom, Md: scale not given here
Conditions: PP
From the text: 3508 patients who were in accordance with the diagnostic standards of AMI for 28 days to 2 years and differentiated as Qi deficiency and blood stagnation syndrome by TCM were studied. 0.5 g Chinese medicine composition prepared by the method of EXAMPLE 1 (Coded as QSYQ) was administrated half an hour after meal, 3 times per day.
They included the overall survival time, angina pectoris score, TCM symptom score and life quality score, where angina pectoris score, TCM symptom score and life quality score were evaluated at randomization, in 1st, 3rd, 6th, 9th, 12th month after treatment and 18th month after follow-up.
The analysis method referred to the angina pectoris score.

[1] = 9 months after treatment-baseline
[2] = 12 months after treatment-baseline

SMILES: CC(=O)Oc1ccccc1C(=O)O [Control group, aspirine]
- change of spontaneous perspiration −2, percent of patients [1]: (0.43%)
- change of spontaneous perspiration −3, number of patients [1]: 0
- change of spontaneous perspiration −3, percent of patients [1]: (0.00%)
- change of total score of TCM symptom, Max [1]: 15.00
- change of total score of TCM symptom, Md [1]: −4.00
- change of total score of TCM symptom, Mean [1]: −5.04
- change of short breath 0, number of patients (12 months after treatment): 743
- distribution of total score of TCM symptom: Medium, number of patients (12 months after treatment): 229
- distribution of total score of TCM symptom: Medium, percentage of patients (12 months after treatment): (16.33%)
- distribution of total score of TCM symptom: Mild, number of patients (12 months after treatment): 1172
- distribution of total score of TCM symptom: Mild, percentage of patients (12 months after treatment): (83.59%)
- distribution of total score of TCM symptom: Severe, number of patients (12 months after treatment): 1
- distribution of total score of TCM symptom: Severe, percentage of patients (12 months after treatment): (0.07%)
- fatigue score 0, % of patients (12 months after treatment): (39.06%)
- fatigue score 0, number of patients (12 months after treatment): 548
- fatigue score 2, % of patients (12 months after treatment): (58.16%)
- fatigue score 2, number of patients (12 months after treatment): 816
- fatigue score 4, % of patients (12 months after treatment): (2.64%)
- fatigue score 4, number of patients (12 months after treatment): 37
- fatigue score 6, % of patients (12 months after treatment): (0.14%)
- fatigue score 6, number of patients (12 months after treatment): 2
- pale complexion score 0, number of patients (12 months after treatment): 870
- pale complexion score 0, percent of patients (12 months after treatment): (62.01%)
- pale complexion score 1, number of patients (12 months after treatment): 463
- pale complexion score 1, percent of patients (12 months after treatment): (33.00%)
- pale complexion score 2, number of patients (12 months after treatment): 63
- pale complexion score 2, percent of patients (12 months after treatment): (4.49%)
- pale complexion score 3, number of patients (12 months after treatment): 7
- pale complexion score 3, percent of patients (12 months after treatment): (0.50%)
- palpitation score 0, number of patients (12 months after treatment): 576
- palpitation score 0, percent of patients (12 months after treatment): (41.05%)
- palpitation score 2, number of patients (12 months after treatment): 745
- palpitation score 2, percent of patients (12 months after treatment): (53.10%)
- palpitation score 4, number of patients (12 months after treatment): 78
- palpitation score 4, percent of patients (12 months after treatment): (5.56%)
- palpitation score 6, number of patients (12 months after treatment): 4
- palpitation score 6, percent of patients (12 months after treatment): (0.29%)
- short breath score 0, % of patients (12 months after treatment): (33.36%)
- short breath score 0, number of patients (12 months after treatment): 468
- short breath score 3, % of patients (12 months after treatment): (58.45%)
- short breath score 3, number of patients (12 months after treatment): 820
- short breath score 6, % of patients (12 months after treatment): (8.20%)
- short breath score 6, number of patients (12 months after treatment): 115
- short breath score 9, % of patients (12 months after treatment): (0.00%)
- short breath score 9, number of patients (12 months after treatment): 0
- spontaneous perspiration score 0, number of patients (12 months after treatment): 730
- spontaneous perspiration score 0, percent of patients (12 months after treatment): (52.03%)
- spontaneous perspiration score 1, number of patients (12 months after treatment): 640
- spontaneous perspiration score 1, percent of patients (12 months after treatment): (45.62%)
- spontaneous perspiration score 2, number of patients (12 months after treatment): 31
- spontaneous perspiration score 2, percent of patients (12 months after treatment): (2.21%)
- spontaneous perspiration score 3, number of patients (12 months after treatment): 2
- spontaneous perspiration score 3, percent of patients (12 months after treatment): (0.14%)
- total score of TCM symptom, Max (12 months after treatment): 28.00
- total score of TCM symptom, Md (12 months after treatment): 7.00
- total score of TCM symptom, Mean (12 months after treatment): 7.81
- total score of TCM symptom, Min (12 months after treatment): 0.00
- change of fatigue 0, % of patients [2]: (44.10%)
- change of fatigue 0, number of patients [2]: 617
- change of fatigue 2, % of patients [2]: (38.03%)
- change of fatigue 2, number of patients [2]: 532
- change of fatigue 4, % of patients [2]: (10.51%)
- change of fatigue 4, number of patients [2]: 147
- change of fatigue 6, % of patients [2]: (1.64%)
- change of fatigue 6, number of patients [2]: 23
- change of fatigue −2, % of patients [2]: (5.43%)
- change of fatigue −2, number of patients [2]: 76
- change of fatigue −4, % of patients [2]: (0.29%)
- change of fatigue −4, number of patients [2]: 4
- change of pale complexion 0, number of patients [2]: 967
- change of pale complexion 0, percent of patients [2]: (69.22%)
- change of pale complexion 1, number of patients [2]: 393
- change of pale complexion 1, percent of patients [2]: (28.13%)
- change of pale complexion −1, number of patients [2]: 37
- change of pale complexion −1, percent of patients [2]: (2.65%)
- change of palpitation 0, number of patients [2]: 679
- change of palpitation 0, percent of patients [2]: (48.53%)
- change of palpitation 1, number of patients [2]: 536
- change of palpitation 1, percent of patients [2]: (38.31%)
- change of palpitation 2, number of patients [2]: 97
- change of palpitation 2, percent of patients [2]: (6.93%)
- change of palpitation 3, number of patients [2]: 6
- change of palpitation 3, percent of patients [2]: (0.43%)
- change of palpitation −1, number of patients [2]: 78
- change of palpitation −1, percent of patients [2]: (5.58%)
- change of palpitation −2, number of patients [2]: 3
- change of palpitation −2, percent of patients [2]: (0.21%)
- change of spontaneous perspiration 0, number of patients [2]: 647
- change of spontaneous perspiration 0, percent of patients [2]: (46.28%)
- change of spontaneous perspiration 1, number of patients [2]: 483
- change of spontaneous perspiration 1, percent of patients [2]: (34.55%)
- change of spontaneous perspiration 2, number of patients [2]: 128
- change of spontaneous perspiration 2, percent of patients [2]: (9.16%)
- change of spontaneous perspiration 3, number of patients [2]: 29
- change of spontaneous perspiration 3, percent of patients [2]: (2.07%)
- change of spontaneous perspiration −1, number of patients [2]: 103
- change of spontaneous perspiration −1, percent of patients [2]: (7.37%)
- change of spontaneous perspiration −2, number of patients [2]: 8
- change of spontaneous perspiration −2, percent of patients [2]: (0.57%)
- change of total score of TCM symptom, Max [2]: 18.00
- change of total score of TCM symptom, Md [2]: −5.00
- change of total score of TCM symptom, Mean [2]: −6.09
- change of total score of TCM symptom, Min [2]: −28.00
- distribution of total score of TCM symptom: Medium, number of patients (Baseline): 717
- distribution of total score of TCM symptom: Medium, percentage of patients (Baseline): (48.78%)
- distribution of total score of TCM symptom: Mild, number of patients (Baseline): 701
- distribution of total score of TCM symptom: Mild, percentage of patients (Baseline): (47.69%)
- distribution of total score of TCM symptom: Severe, number of patients (Baseline): 52
- distribution of total score of TCM symptom: Severe, percentage of patients (Baseline): (3.54%)
- fatigue score 0, % of patients (Baseline): (18.22%)
- fatigue score 0, number of patients (Baseline): 268
- fatigue score 2, % of patients (Baseline): (60.50%)
- fatigue score 2, number of patients (Baseline): 890
- fatigue score 4, % of patients (Baseline): (17.74%)
- fatigue score 4, number of patients (Baseline): 261
- fatigue score 6, % of patients (Baseline): (3.54%)
- fatigue score 6, number of patients (Baseline): 52
- pale complexion score 0, number of patients (Baseline): 494
- pale complexion score 0, percent of patients (Baseline): (33.61%)
- pale complexion score 1, number of patients (Baseline): 626
- pale complexion score 1, percent of patients (Baseline): (42.59%)
- pale complexion score 2, number of patients (Baseline): 293
- pale complexion score 2, percent of patients (Baseline): (19.93%)
- pale complexion score 3, number of patients (Baseline): 57
